{"source": "ChEMBL document CHEMBL4387741", "about": "“Optimization of novel reversible Bruton's tyrosine kinase inhibitors identified using Tethering-fragment-based screens” (Bioorg Med Chem, 2019)", "key": {"[1]": {"target": "Serine/threonine-protein kinase LATS2 (Homo sapiens) (UniProt Q9NRM7)", "experiment": "Inhibition of wild-type human partial length LATS2 (Q641 to V1088 residues) expressed in mammalian expression system at 1 uM by Kinomescan method relative to control"}, "[2]": {"test_system": "Receptor-type tyrosine-protein kinase FLT3 (Homo sapiens), P36888 [D835V]", "experiment": "Inhibition of human partial length FLT3 D835V mutant (V592 to Y969 residues) expressed in bacterial expression system at 1 uM by Kinomescan method relative to control"}, "[3]": {"target": "MAP kinase-interacting serine/threonine-protein kinase 2 (Homo sapiens) (UniProt Q9HBH9)", "experiment": "Inhibition of wild-type human partial length MKNK2 (G63 to S388 residues) expressed in mammalian expression system at 1 uM by Kinomescan method relative to control"}, "[4]": {"test_system": "ALK tyrosine kinase receptor (Homo sapiens), Q9UM73 [L1196M]", "experiment": "Inhibition of wild-type human partial length ALK L1196M mutant (I1088 to E1409 residues) expressed in mammalian expression system at 1 uM by Kinomescan method relative to control"}, "[5]": {"experiment": "Aqueous kinetic solubility of the compound at pH 6.8 by shake flask assay", "assay_type": "physicochemical", "conditions": "read-out: Kinetic_solubility"}, "[6]": {"target": "Mitogen-activated protein kinase 11 (Homo sapiens) (UniProt Q15759)", "experiment": "Inhibition of wild-type human full length p38-beta (M1 to Q364 residues) expressed in bacterial expression system at 1 uM by Kinomescan method relative to control"}, "[7]": {"target": "Peripheral plasma membrane protein CASK (Homo sapiens) (UniProt O14936)", "experiment": "Inhibition of wild-type human partial length CASK (M1 to H315 residues) expressed in mammalian expression system at 1 uM by Kinomescan method relative to control"}, "[8]": {"target": "Serine/threonine-protein kinase Nek2 (Homo sapiens) (UniProt P51955)", "experiment": "Inhibition of wild-type human partial length NEK2 (M1 to K309 residues) expressed in bacterial expression system at 1 uM by Kinomescan method relative to control"}, "[9]": {"target": "Mitogen-activated protein kinase 3 (Homo sapiens) (UniProt P27361)", "experiment": "Inhibition of wild-type human full length ERK1 (M1 to P379 residues) expressed in bacterial expression system at 1 uM by Kinomescan method relative to control"}, "[10]": {"test_system": "Phosphatidylinositol 4,5-bisphosphate 3-kinase catalytic subunit alpha isoform (Homo sapiens), P42336 [M1043I]", "experiment": "Inhibition of human partial length PIK3CA M1043I mutant (R108 to N1068 residues) expressed in mammalian expression system at 1 uM by Kinomescan method relative to control"}, "[11]": {"target": "Mitogen-activated protein kinase kinase kinase kinase 3 (Homo sapiens) (UniProt Q8IVH8)", "experiment": "Inhibition of wild-type human partial length MAP4K3 (M1 to D301 residues) expressed in bacterial expression system at 1 uM by Kinomescan method relative to control"}, "[12]": {"target": "Calcium/calmodulin-dependent protein kinase kinase 2 (Homo sapiens) (UniProt Q96RR4)", "experiment": "Inhibition of wild-type human partial length CAMKK2 (D65 to V471 residues) expressed in bacterial expression system at 1 uM by Kinomescan method relative to control"}, "[13]": {"target": "Phosphorylase b kinase gamma catalytic chain, skeletal muscle/heart isoform (Homo sapiens) (UniProt Q16816)", "experiment": "Inhibition of wild-type human full length PHKG1 (M1 to Y387 residues) expressed in bacterial expression system at 1 uM by Kinomescan method relative to control"}, "[14]": {"target": "Rho-associated protein kinase 2 (Homo sapiens) (UniProt O75116)", "experiment": "Inhibition of wild-type human partial length ROCK2 (M1 to T431 residues) expressed in mammalian expression system at 1 uM by Kinomescan method relative to control"}, "[15]": {"target": "Wee1-like protein kinase 2 (Homo sapiens) (UniProt P0C1S8)", "experiment": "Inhibition of wild-type human partial length WEE2 (M204 to K492 residues) expressed in bacterial expression system at 1 uM by Kinomescan method relative to control"}, "[16]": {"target": "Vascular endothelial growth factor receptor 2 (Homo sapiens) (UniProt P35968)", "experiment": "Inhibition of wild-type human partial length VEGFR2 (R787 to P1253 residues) expressed in mammalian expression system at 10 uM by Kinomescan method relative to control"}, "[17]": {"test_system": "Epidermal growth factor receptor (Homo sapiens), P00533 [UNDEFINED MUTATION]", "experiment": "Inhibition of human partial length EGFR L747-T751del/Sins mutant expressed in bacterial expression system at 10 uM by Kinomescan method relative to control"}, "[18]": {"test_system": "Phosphatidylinositol 4,5-bisphosphate 3-kinase catalytic subunit alpha isoform (Homo sapiens), P42336 [H1047L]", "experiment": "Inhibition of human partial length PIK3CA H1047L mutant (R108 to N1068 residues) expressed in mammalian expression system at 10 uM by Kinomescan method relative to control"}, "[19]": {"target": "Mitogen-activated protein kinase kinase kinase 9 (Homo sapiens) (UniProt P80192)", "experiment": "Inhibition of wild-type human partial length MLK1 (V88 to W426 residues) expressed in bacterial expression system at 10 uM by Kinomescan method relative to control"}, "[20]": {"target": "Serine/threonine-protein kinase ULK3 (Homo sapiens) (UniProt Q6PHR2)", "experiment": "Inhibition of wild-type human partial length ULK3 (M1 to Q290 residues) expressed in mammalian expression system at 10 uM by Kinomescan method relative to control"}, "[21]": {"target": "Serine/threonine-protein kinase RIO2 (Homo sapiens) (UniProt Q9BVS4)", "experiment": "Inhibition of wild-type human partial length RIOK2 (M1 to D313 residues) expressed in mammalian expression system at 10 uM by Kinomescan method relative to control"}, "[22]": {"target": "Casein kinase I isoform alpha (Homo sapiens) (UniProt P48729)", "experiment": "Inhibition of wild-type human partial length CSNK1A1 (M1 to L450 residues) expressed in mammalian expression system at 10 uM by Kinomescan method relative to control"}, "[23]": {"target": "Casein kinase I isoform epsilon (Homo sapiens) (UniProt P49674)", "experiment": "Inhibition of wild-type human full length CSNK1E (M1 to K416 residues) expressed in bacterial expression system at 10 uM by Kinomescan method relative to control"}, "[24]": {"target": "Serine/threonine-protein kinase mTOR (Homo sapiens) (UniProt P42345)", "experiment": "Inhibition of wild-type human partial length MTOR (L1382 to W2549 residues) expressed in mammalian expression system at 10 uM by Kinomescan method relative to control"}, "[25]": {"target": "Ribosomal protein S6 kinase alpha-5 (Homo sapiens) (UniProt O75582)", "experiment": "Inhibition of wild-type human partial length C-terminal RPS6KA5 kinase domain 2 (V390 to T718 residues) expressed in bacterial expression system at 10 uM by Kinomescan method relative to control"}, "[26]": {"target": "Casein kinase II subunit alpha' (Homo sapiens) (UniProt P19784)", "experiment": "Inhibition of wild-type human full length CSNK2A2 (M1 to R350 residues) expressed in mammalian expression system at 10 uM by Kinomescan method relative to control"}, "[27]": {"target": "STE20-like serine/threonine-protein kinase (Homo sapiens) (UniProt Q9H2G2)", "experiment": "Inhibition of wild-type human partial length SLK (S14 to A307 residues) expressed in bacterial expression system at 10 uM by Kinomescan method relative to control"}}}
{"smiles": "O=C(Nc1cccc([C@@H]2CN(c3ncnc4[nH]ccc34)CCN2CCO)c1)Nc1c(F)cccc1N1CCCC1", "values": [{"measurement": "inhibition", "setting": "[1]", "result": 86, "unit": "%"}, {"measurement": "inhibition", "setting": "[2]", "result": 11, "unit": "%"}, {"measurement": "inhibition", "setting": "[3]", "result": 64, "unit": "%"}, {"measurement": "inhibition", "setting": "[4]", "result": 74, "unit": "%"}, {"measurement": "solubility kinetic", "setting": "[5]", "result": 8, "unit": "µg/mL"}, {"measurement": "inhibition", "setting": "[6]", "result": 92, "unit": "%"}, {"measurement": "inhibition", "setting": "[7]", "result": 78, "unit": "%"}, {"measurement": "inhibition", "setting": "[8]", "result": 100, "unit": "%"}, {"measurement": "inhibition", "setting": "[9]", "result": 100, "unit": "%"}, {"measurement": "inhibition", "setting": "[10]", "result": 94, "unit": "%"}, {"measurement": "inhibition", "setting": "[11]", "result": 71, "unit": "%"}, {"measurement": "inhibition", "setting": "[12]", "result": 94, "unit": "%"}, {"measurement": "inhibition", "setting": "[13]", "result": 98, "unit": "%"}, {"measurement": "inhibition", "setting": "[14]", "result": 67, "unit": "%"}, {"measurement": "inhibition", "setting": "[15]", "result": 93, "unit": "%"}]}
{"smiles": "O=C(Nc1cccc([C@H]2CCCN(c3ncnc4[nH]ccc34)C2)c1)Nc1ccccc1N1CCCC1", "values": [{"measurement": "inhibition", "setting": "[16]", "result": 3.5, "unit": "%"}, {"measurement": "inhibition", "setting": "[17]", "result": 88, "unit": "%"}, {"measurement": "inhibition", "setting": "[18]", "result": 100, "unit": "%"}, {"measurement": "inhibition", "setting": "[19]", "result": 59, "unit": "%"}, {"measurement": "inhibition", "setting": "[20]", "result": 6.2, "unit": "%"}, {"measurement": "inhibition", "setting": "[21]", "result": 72, "unit": "%"}, {"measurement": "inhibition", "setting": "[22]", "result": 62, "unit": "%"}, {"measurement": "inhibition", "setting": "[23]", "result": 90, "unit": "%"}, {"measurement": "inhibition", "setting": "[24]", "result": 98, "unit": "%"}, {"measurement": "inhibition", "setting": "[25]", "result": 75, "unit": "%"}, {"measurement": "inhibition", "setting": "[26]", "result": 91, "unit": "%"}, {"measurement": "inhibition", "setting": "[27]", "result": 28, "unit": "%"}]}
